The record followed here is patent US10752647B2, “N-phosphonoxymethyl prodrugs of hydroxyalkyl thiadiazole derivatives” (DAIICHI SANKYO COMPANY, LIMITED, priority 2017, dated 2020).

What all share (assay type): in vivo
Data set [1] can be described thus: Conversion efficiency / PK profile after IV dose in monkeys. To be noted: Monkey, plasma, parent compound IV 1 mg/kg; read-out: Parent compound AUCinf. The procedure: (§1) Method of Testing Conversion Efficiency Determination of conversion efficiency of Compound No. 1 and Compound No. 2 was conducted in rodents (mice and rats) and non-rodents (monkeys and dogs). Animals were divided in two groups with two animals in each group. One group received an intravenous (IV) dose of prodrug and the other group received an IV dose of parent compound. The dose of prodrug was taken as molar equivalent dose of parent compound. Serial blood sampling was carried out at 0.083, 0.33, 1, 2, 4, 8 and 24 h post IV dose from both the animal groups. Blood samples were centrifuged to harvest plasma. Plasma samples were stored at −80° C. until analysis. Plasma samples of prodrug administered animals were simultaneously analyzed for both analytes (prodrug and parent compound) using LC-MS/MS. Area under the curve (AUC) of plasma concentrations versus time profiles were calculated in WinNonlin software and percentage conversion efficiency was determined using the formula: Percentage conversion efficiency=(AUCiv of parent compound (from prodrug administered samples)×100/(AUCiv of parent compound (from parent compound administered samples). PK profile of Compounds No. 1 and No. 2 in rats, dogs and monkeys are depicted in Table 5 and 6, respectively (also shown in FIGS. 1 and 2).

Data set [2] can be described thus: Conversion efficiency / PK profile after IV dose in dogs. To be noted: Dog, plasma, parent compound IV 1 mg/kg; read-out: Parent compound AUCinf. As to the method: as §1
The nature of data set [3]: Conversion efficiency / PK profile after IV dose in rats (Compounds No. 1 and No. 2). To be noted: Rat, plasma, parent compound IV 12.5 mg/kg; read-out: Parent compound AUCinf. The procedure: as §1

As to `CCc1[nH]c(C(=O)N[C@@H]2CCN(c3nnc(C(C)(C)O)s3)C[C@@H]2OC)nc1Cl` [Parent compound of Compound No. 1, 4-chloro-5-ethyl-N-{(3S,4R)-1-[5-(1-hydroxy-1-methylethyl)-1,3,4-thiadiazol-2-yl]-3-methoxypiperidin-4-yl}-1H-imidazole-2-carboxamide], the AUC(0-inf) in data set [1] came to 6250 ng·h/mL; in data set [2] it was 29400 ng·h/mL; in data set [3], 17700 ng·h/mL.
